A short description of this data set: gradient 5% acetonitrile 3 min, to 50% in 2 min, to 85% in 15 min, held 3 min, 100 µL/min. The following applies: column: Zorbax Extend-C18 2.1 x 50 mm; eluents: water / acetonitrile, 0.1% formic acid. A digest of the protocol: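 Values are retention times taken from adduct peaks that software picked and an analyst inspected. The pure standards were run as mixtures of ~100 molecules on HPLC linked to a quadrupole time-of-flight mass spectrometer, in positive and negative ionization mode. A Zorbax Extend-C18 column (2.1 × 50 mm, 1.8 μm) was used at 100 μL/min with water and acetonitrile, each including 0.1% formic acid.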
With `Cc1ccn2cc(-c3ccc(NS(=O)(=O)c4cc(C(C)C)ccc4C)cc3)nc2n1`, the RP-LC retention time turned out to be 745 s. In the case of `COc1ccccc1-c1nc(-c2ccc3c(c2)ncn3CCN2CCCC2)no1` it was 797 s; in that of `Cc1ccc(/C=C/c2onc(C)c2S(=O)(=O)N2CCC(C(=O)NCC3CCCO3)CC2)cc1` (centres undefined), 828 s.

`O=C(NCc1ccco1)C1CCCN(C(=O)NC2CC2)C1` (centres undefined) came in with an RP-LC retention time of 604 s. `CC(C)NC(=O)c1ccc(-c2nc3cc(NS(=O)(=O)c4ccc(F)cc4F)ccc3n2C)cc1` displayed an RP-LC retention time of 697 s.

`Cc1cc(C)c(S(=O)(=O)Nc2cccc(C(F)(F)F)c2)c(C)c1` displayed an RP-LC retention time of 1100 s.

The compound `COc1ccc(CNC(=O)C2(c3ccc(NS(C)(=O)=O)cc3)CCCCC2)cc1` had an RP-LC retention time of 859 s. In the case of `CCCn1cc(CCNC(=O)C2CC2)c2cccnc21` it was 621 s. In the case of `CC(C)Cn1cc(S(=O)(=O)Nc2ccc(Cl)cc2F)c2cccnc21` it was 1010 s; in that of `CC(C)n1c(=O)c2ccccc2n(Cc2nc(-c3ccc4c(c3)OCO4)no2)c1=O`, 1080 s; in that of `Cc1ccc2nc(-c3ccccc3)c(Nc3ccc4c(c3)OCO4)n2c1`, 717 s. In turn, `COc1ccc(C)cc1NC(=O)Cn1nc2cc(-c3ccccc3)nc(C)n2c1=O` returned an RP-LC retention time of 752 s.

On to `COc1ccc(-c2nc3cnccn3c2NCCC(=O)Nc2ccc3c(c2)OCCO3)cc1`, for which the RP-LC retention time is 676 s. Regarding `CCc1cccc(N2C=C(C(=O)OC)S(=O)(=O)c3ccccc32)c1`, the RP-LC retention time amounted to 930 s. In the case of `O=C(Cn1c(=O)n(-c2ccccc2)c2ncccc21)NCCCN1CCOCC1` it was 596 s. In the case of `CCOCCCNC(=O)C(C)n1nc(C)c2c(C)n(-c3ccccc3)nc2c1=O` (centres undefined) it was 721 s; in that of `CC(C(=O)NCc1ccco1)C1CCN(C(=O)c2cc3ccccc3[nH]2)CC1` (centres undefined), 767 s. In the case of `O=S(=O)(c1ccccc1Cl)N1CCN(c2ccc3nnc(-c4ccco4)n3n2)CC1` it was 726 s. `Cc1cc(C)n(-c2ccc(CNC(=O)c3ccc(Cl)s3)cc2)n1`: the RP-LC retention time came to 892 s. In the case of `CCn1nccc1C(=O)N1c2ccccc2CC1c1nnc(C2CC2)o1` (centres undefined) it was 755 s. In the case of `CCOc1ccc(-n2nnc3c(=O)n(C/C=C/c4ccccc4)cnc32)cc1` it was 969 s; in that of `CC(C)NC(=O)C1CCCN(c2nc3ncn(CC(=O)Nc4ccc5c(c4)OCO5)c(=O)c3s2)C1` (centres undefined), 678 s.

As to `CCn1ccc(C(=O)N2CCC(Nc3ncnc4c3CCC4)CC2)n1`, the RP-LC retention time was 553 s. In the case of `O=C(Nc1ccccc1Cl)N1CC(F)(F)C[C@H]1CN1CCCC1` it was 627 s.

`CC(C)CC(=O)N1CCN(c2nc3ccccc3n(CC(C)C)c2=O)CC1` registered an RP-LC retention time of 1080 s. In the case of `COc1ccc(-c2csc(C)n2)cc1S(=O)(=O)N1CCN(c2cccc(Cl)c2)CC1` it was 1170 s. With `COc1ccc(NC(=O)Nc2c(-c3ccccc3)nc3ccccn23)cc1OC`, the RP-LC retention time was determined as 612 s.

As to `CCOc1ccc(CN(CC)Cc2cc(=O)n3cc(Cl)ccc3n2)cc1`, the RP-LC retention time worked out at 654 s. In the case of `CCOc1ccccc1CNC(=O)c1c(C)sc2ccn(C)c(=O)c12` it was 823 s. In the case of `Cc1cccc(NC(=O)N2CCc3c(c(-c4nc(C5CC5)no4)nn3C)C2)c1` it was 854 s. In the case of `CCc1ccc(NS(=O)(=O)c2cc(-c3c(CC)noc3NC(C)=O)ccc2OC)cc1` it was 802 s.

In the case of `CCn1cc(SCC(=O)NCc2ccc3c(c2)OCO3)c2ccccc21`, the RP-LC retention time was 854 s. In turn, `Cc1cc(C)c(-c2csc(NC(=O)c3ccc(S(=O)(=O)N4CCOCC4)cc3)n2)c(C)c1` registered an RP-LC retention time of 1110 s. In the case of `COc1cccc(NC(=O)CN2CCc3[nH]c4c(OC)ccc(Cl)c4c(=O)c3C2)c1` it was 610 s; in that of `CCC(CC)NS(=O)(=O)c1cc(-c2[nH]ncc2C(=O)N(C)C)oc1C`, 659 s; in that of `Cc1c(C(=O)NC2CC2)c(C)n(C)c1-c1ccccc1`, 830 s.

Compound `CN(C)C(=O)c1ccc2c(c1)N(CC(=O)N1CCN(c3ccccn3)CC1)C(=O)CS2` showed an RP-LC retention time of 573 s. In the case of `CCOc1ccccc1NC(=O)C1CCN(S(C)(=O)=O)c2ccccc2O1` (centres undefined) it was 994 s; in that of `CN1C(=O)COc2ccc(-c3csc(NC(=O)CCC4CCCCC4)n3)cc21`, 1140 s; in that of `CCCn1cnc2cc(-c3noc(CNC(=O)c4ccccc4)n3)ccc21`, 667 s.

Take `O=C(Nc1cnc(N2CCCCCC2)nc1)c1ccsc1`: the RP-LC retention time worked out at 822 s. In turn, `CCN1c2cc(C)ccc2-n2cccc2C12CCN(C(=O)NCCCOC)CC2` returned an RP-LC retention time of 931 s. In the case of `COc1ccc2cc(C(=O)N3CCC(CC(=O)NC4CC4)CC3)[nH]c2c1` it was 690 s. In the case of `CCCC(=O)N1CCCN(C2=NS(=O)(=O)C(c3ccccc3)=C2C)CC1` it was 740 s. In the case of `CCOc1ccccc1NC(=O)Cn1nc2c3sc(N(C)C)nc3ncn2c1=O` it was 724 s; in that of `Cc1cc(C)n(-c2cc(SCC(=O)NCc3ccco3)ncn2)n1`, 779 s. Turning to `CCN1c2ccc(C)cc2C(=O)NC12CCN(C(=O)c1ccc(OC)cc1)CC2`, the RP-LC retention time is 810 s. `COc1ccc(S(=O)(=O)N2CCCC(C(=O)NCC3CCCO3)C2)cc1C` (centres undefined): the RP-LC retention time is 778 s. In the case of `CC1CCN(C(=O)CC2Sc3ncccc3N(C)C2=O)CC1` (centres undefined) it was 726 s; in that of `CC(=O)Nc1ccc(C2=NN(C(C)=O)C(c3ccc4c(c3)OCO4)C2)cc1` (centres undefined), 666 s. In the case of `COc1ccc(N2CC(CNC(=O)C3CCCC3)OC2=O)cc1OC` (centres undefined) it was 649 s; in that of `CCCNC(=O)CCNc1c(-c2ccccc2C)nc2cnccn12`, 607 s; in that of `CCN1CCN(Cc2ccc(C(=O)Nc3ccc(C)c(Oc4ccc5c(c4)CC(=O)N5)c3)cc2C(F)(F)F)CC1`, 817 s. In the case of `COC(=O)c1c(C)[nH]c(C(=O)N2CCC(CC(=O)NCc3ccc(C)o3)CC2)c1C` it was 702 s; in that of `O=C(Cc1cccs1)NC1CCCN(c2cc(-c3ccc(F)cc3)[nH]n2)C1` (centres undefined), 784 s; in that of `Cc1cc(C)n(CC(=O)N(C)C2CCc3nn(CC4CC4)c(=O)n3CC2)n1` (centres undefined), 630 s. On to `O=C(NCCCN1CCOCC1)C1CCCN(c2ncnc3c2nc2n3CCCCC2)C1` (centres undefined), for which the RP-LC retention time turned out to be 580 s. In the case of `CC(C)Cn1cc(CCNC(=O)c2cccc(Br)c2)c2cccnc21` it was 922 s; in that of `Cc1cccc(N2CCN(CC(O)c3ccc4c(c3)OCO4)CC2)c1` (centres undefined), 669 s; in that of `CCC(c1ccccc1)c1nc(-c2ccc3nnn(C)c3c2)no1` (centres undefined), 1100 s. In the case of `c1ccc(-c2nc(C3CCN(Cc4cccs4)C3)no2)nc1` (centres undefined) it was 583 s; in that of `Cc1oc(-c2[nH]ncc2C(=O)N2CCCC2)cc1S(=O)(=O)NCc1cccc(Cl)c1`, 796 s; in that of `Cc1ccc(S(=O)(=O)CCC(=O)N2CCCC2c2nc(-c3ccc(Cl)cc3)no2)cc1` (centres undefined), 1060 s.

In turn, `Cc1ccc2c(C(=O)NCc3ccc(F)cc3F)cc(NC(=O)C(C)C)cc2n1` returned an RP-LC retention time of 660 s. The compound `Cc1ccc(CN2CCC(CNS(=O)(=O)c3ccc4c(c3)CCCC(=O)N4)C2)cc1` (centres undefined) came in with an RP-LC retention time of 625 s.

`CCn1c(=O)sc2cc(S(=O)(=O)N3CCC(C(=O)NCCC4=CCCCC4)CC3)ccc21` yielded an RP-LC retention time of 958 s. `O=C(NC1CC1)c1ccccc1OC1CN(C2CCC2)C1` had an RP-LC retention time of 568 s.

In turn, `O=C(NCC1CCN(S(=O)(=O)C2CC2)CC1)Oc1ccccc1` came in with an RP-LC retention time of 745 s. In the case of `O=C(NCc1ccc(F)cc1)N1CCC(c2noc(C3CC3)n2)C1` (centres undefined) it was 751 s; in that of `COc1ccc(CC(=O)Nc2nnc(SCc3nnc(-c4ccccc4)o3)s2)cc1`, 848 s; in that of `Cc1ccc(C)c(CNC(=O)c2nnc(-c3ccc(S(=O)(=O)N(C)C)cc3)o2)c1`, 950 s.

In turn, `CC1CCN(S(=O)(=O)c2ccc3c(c2)CCCC(=O)N3CC(=O)NC2CCCC2)CC1` yielded an RP-LC retention time of 874 s.

The compound `CCOc1ccc(CNC(=O)CCc2nnc3c4cc(-c5ccccc5)nn4ccn23)cc1` registered an RP-LC retention time of 785 s. In the case of `CCC(=O)Nc1ccc2c(c1)N(C(=O)c1cccs1)CCC2` it was 717 s; in that of `CC(=O)N1CCN(c2nc(CC(C)C)c3c(c2C#N)CC(C)(C)OC3)CC1`, 1060 s; in that of `C[C@@H]1CN(C(=O)c2ccoc2)C[C@H]1c1nc(-c2ccccc2)no1`, 879 s. In the case of `CCn1c(=O)c(N2CCC(NC(=O)NC)CC2)nc2ccccc21` it was 759 s; in that of `Cn1c(=O)c(N2CCN(C(=O)c3cc(F)ccc3Cl)CC2)nc2ccncc21`, 570 s. In the case of `O=C(Nc1ncccn1)c1c[nH]c2c(Cl)cccc2c1=O` it was 617 s.

Source of the values: the METLIN SMRT retention time set (Domingo-Almenara et al. 2019).
